Experimental data: PMC9335283 (Frontiers in Microbiology, 2022)
Converted amounts (≈) assume the structure as drawn. Where two headings read alike, the source gives them in different places. Where a SMILES comes first, the peptide text is derived from it.

Key:
S. aureus [1] = test: microbe, parasite or virus in culture; assay type: cell-based; conditions: Staphylococcus aureus, 18 h
Protocol: (§1) S. aureus and S. enteritidis isolates were obtained from laboratory clinical isolates, and avian pathogenic E. coli was kindly provided by Professor Qingke Kong (College of Veterinary Medicine, Southwest University). […] Bacteria were cultured at 37°C for 18 h in MHB or LB agar plates.
(§2) Briefly, bacteria were maintained in MHB medium at 37°C and grown to mid-logarithmic growth phase before being tested. […] After incubation, minimum inhibitory concentration (MIC) was determined by the observation of turbidity, and minimum bactericidal concentration (MBC) was determined by colony counting. […] After overnight culture at 37°C, survival bacteria were counted.

S. enteritidis [2] = test: microbe, parasite or virus in culture; assay type: cell-based; conditions: Salmonella enterica, MHB, 18 h, 37°C, triplicate; for MBC: colony counting; for MIC: turbidity
Description: S. aureus and S. enteritidis isolates were obtained from laboratory clinical isolates, and avian pathogenic E. coli was kindly provided by Professor Qingke Kong (College of Veterinary Medicine, Southwest University). Mueller–Hinton broth (MHB; Beijing Land Bridge Technology Co., Ltd., China) was used as bacterial growth media for antimicrobial activity assays, and Luria–Bertani (LB; Qingdao Hope Bio-Technology Co., Ltd., China) agar plates were used for the colony-counting assay. Bacteria were cultured at 37°C for 18 h in MHB or LB agar plates.
Antimicrobial activity of AMPs and antibiotics was performed by the broth microdilution assay as reported previously (Wiegand et al., [2008]). Briefly, bacteria were maintained in MHB medium at 37°C and grown to mid-logarithmic growth phase before being tested. Then, 50 μl of peptides (0–80 μM) and antibiotics (0–40,960 μM) with triplicate were mixed with an equal volume of bacterial suspension (2 × 10^6 CFU/ml) in 96-well plates and incubated for 18 h at 37°C. After incubation, minimum inhibitory concentration (MIC) was determined by the observation of turbidity, and minimum bactericidal concentration (MBC) was determined by colony counting. […] After overnight culture at 37°C, survival bacteria were counted.

E. coli [3] = test: microbe, parasite or virus in culture; assay type: cell-based; conditions: Escherichia coli, 18 h
Protocol: as §1, §2

red blood cells of mice = test: Hemolytic activity assay; assay type: cell-based
Protocol: Murine erythrocytes and peritoneal macrophages were obtained from wild-type (WT) C57BL/6 mice (Chongqing Academy of Chinese Material Medical, China). Briefly, erythrocytes were obtained by collecting blood from the tail vein. […] The hemolytic activities of AMPs and antibiotics were determined as previously described (Song et al., [2020]). In brief, whole mice blood was centrifuged at 1,500 rpm for 5 min at room temperature and then washed three times with phosphate-buffered saline (PBS) to obtain red blood cells (RBCs). Subsequently, 2% RBCs in PBS were prepared. Then, aliquots of 100 μl RBCs were mixed with 100 μl tested compounds in PBS in polypropylene 96-well microtiter plates and incubated for 1 h at 37°C. After incubation, the plate was centrifuged for 5 min at 1,500 rpm and 100 μl supernatant was transferred to a new 96-well plate to determine the absorbance at 570 nm. RBCs in PBS served as negative control while RBCs treated with 1% Triton X-100 in PBS served as a positive control. The percent of hemolysis (%) was calculated using the following formula Hemolysise (%)=(OD570nm of treated sample-OD570nm of negative control)/(OD570nm of positive control-OD570nm of negative control)×100%

PK-15 cells = test: Cytotoxicity, WST-1 assay; assay type: cell-based
Protocol: Cells were seeded at a density of 1 × 10^5 cells/well in 48-well plates and cultured overnight before being used for assays described below. For cytotoxicity assay, mice peritoneal macrophages and PK-15 cells were prepared in a 48-well plate as described above and incubated with or without tested compounds for 2 h at 37°C with CO2. After 2 h incubation, cells were washed with a cell culture medium twice and continued to culture for 22 or 46 h. After 24 and 48 h incubation, 150 μl of 10% WST-1 reagent was added according to the protocols of the manufacturer. After 20 min incubation, absorbance was measured at 450 nm with a microplate reader (Bio-Rad, Japan) and was corrected for absorbance at 630 nm. Untreated cells were set as a control. The percent of cell viability (%) was calculated using the following formula: Cell viability (%) =OD450nm of treated sample/OD450nm of control×100%

S. aureus [4] = test: Time-killing curve assay; assay type: cell-based, Staphylococcus aureus; conditions: at sub-MBC (lowest concentrations with synergy), followed to 180 min
Protocol: (§3) The bacterial suspension was prepared as described above. […] After overnight culture, colony counting was performed.

E. coli [5] = test: Time-killing curve assay; assay type: cell-based, Escherichia coli; conditions: at sub-MBC (lowest concentrations with synergy), followed to 180 min
Protocol: as §3

E. coli [6] = test: Motility assay on semisolid agar; assay type: cell-based, Escherichia coli; conditions: alone at 1/4 MIC, 18 h
E. coli [7] = assay type: cell-based, Escherichia coli
Protocol: Drug resistance induction of E. coli was performed as previously reported. […] Bacteria from the highest concentration of drug combination were regrown, and MIC of erythromycin was measured, and then bacteria were treated again with the drug combination. The change in MIC was described by normalizing the MIC of the n generation to the MIC of first generation.

E. coli [8] = test: SEM analysis of bacterial morphology; assay type: cell-based, Escherichia coli; conditions: 1/16 MBC of each agent, 6 h, 37°C, 1 × 10^8 CFU/ml
Protocol: After incubation, bacterial suspension was centrifuged and washed with PBS three times. Then, bacterial pellets were fixed with 1.5 ml of 2.5% glutaraldehyde in PBS at 4°C overnight. Finally, samples were sent to the Lilai biomedicine experiment center (Sichuan, China) for SEM analysis.

S. enteritidis [9] = test: Time-killing curve assay; conditions: at sub-MBC (lowest concentrations with synergy), followed to 180 min
Protocol: as §3

With CC1(C)S[C@@H]2[C@H](NC(=O)[C@H](N)c3ccccc3)C(=O)N2[C@H]1C(=O)O [Ampicillin, ampicillin] the MBC (S. aureus [1]) was 640 µM (≈ 224 µg/mL), the MIC (S. aureus [1]) was 80 µM (≈ 28 µg/mL) and the MBC (S. enteritidis [2]) was greater than 5120 µM. For the same compound, the MIC (S. enteritidis [2]) was 5120 µM (≈ 1790 µg/mL), the MBC (E. coli [3]) was 160 µM (≈ 55.9 µg/mL) and the MIC (E. coli [3]) was 160 µM (≈ 55.9 µg/mL).
CC[C@H](C)[C@H](NC(=O)CNC(=O)[C@H](C)NC(=O)[C@H](C)NC(=O)[C@@H](NC(=O)[C@@H](NC(=O)[C@H](CC(N)=O)NC(=O)[C@@H](NC(=O)[C@H](C)NC(=O)[C@@H](NC(=O)[C@@H]1CCCN1C(=O)[C@@H](NC(=O)[C@H](CC(C)C)NC(=O)[C@@H]1CCCN1C(=O)[C@H](Cc1c[nH]c2ccccc12)NC(=O)[C@H](Cc1ccccc1)NC(=O)[C@H](CCCNC(=N)N)NC(=O)[C@H](CCCCN)NC(=O)[C@@H](NC(=O)[C@@H](N)CCCNC(=N)N)C(C)C)C(C)C)C(C)C)[C@@H](C)CC)[C@@H](C)O)C(C)C)C(=O)N[C@@H](CC(N)=O)C(=O)N[C@@H](CC(C)C)C(=O)N[C@@H](Cc1ccc(O)cc1)C(=O)N[C@@H](CCCCN)C(=O)N[C@@H](C)C(=O)N[C@H](C(=O)N[C@@H](CCCNC(=N)N)C(=O)N[C@@H](CCCNC(=N)N)C(=O)N[C@@H](CCCCN)C(=O)O)[C@@H](C)CC [CATH-3] (H-RVKRFWPLVPVAINTVAAGINLYKAIRRK-OH) was tested, and the hemolysis (red blood cells of mice; red cells of mouse, 1 h) was less than 20% and the “toxicity to PK-15 cells” value (PK-15 cells) was “did not show toxicity”.
In the case of CC[C@H]1OC(=O)[C@H](C)[C@@H](O[C@H]2C[C@@](C)(OC)[C@@H](O)[C@H](C)O2)[C@H](C)[C@@H](O[C@@H]2O[C@H](C)C[C@H](N(C)C)[C@H]2O)[C@](C)(O)C[C@@H](C)C(=O)[C@H](C)[C@@H](O)[C@]1(C)O [Erythromycin, erythromycin], the MBC (S. aureus [1]) is reported as greater than 5120 µM, the MIC (S. aureus [1]) is reported as 5120 µM (≈ 3760 µg/mL) and the MBC (S. enteritidis [2]) is reported as greater than 5120 µM. The MIC (S. enteritidis [2]) was 80 µM (≈ 58.7 µg/mL), the MBC (E. coli [3]) was greater than 5120 µM and the MIC (E. coli [3]) was 40 µM (≈ 29.4 µg/mL). For the same compound, the “time to kill all bacteria” value (S. aureus [4]) was greater than 180 min, the “time to kill all bacteria” value (E. coli [5]) was greater than 180 min and the hemolysis (red blood cells of mice) was greater than 95%. For the same compound, the cell viability (PK-15 cells) was less than 30%, the “effect on bacterial migration distance” value (E. coli [6]) was “did not affect bacterial migration distance” and the “MIC of erythromycin increase” value (E. coli [7]) was 16 fold. The MIC increase (E. coli [7]; […], 14th generation, relative to first generation) was 2 fold, the “E. coli cellular morphology by SEM” value (E. coli [8]) was “induced the formation of micelles” and the “time to kill all bacteria” value (S. enteritidis [9]) was greater than 180 min.
CNC(C)C1CCC(N)C(OC2C(N)CC(N)C(OC3OCC(C)(O)C(NC)C3O)C2O)O1 (centres unmarked) [Gentamicin, gentamicin] was tested, and the MBC (S. aureus [1]) was 40 µM (≈ 19.1 µg/mL), the MIC (S. aureus [1]) was 20 µM (≈ 9.55 µg/mL) and the MBC (S. enteritidis [2]) was 5 µM (≈ 2.39 µg/mL). The MIC (S. enteritidis [2]) was 2.5 µM (≈ 1.19 µg/mL), the MBC (E. coli [3]) was 2.5 µM (≈ 1.19 µg/mL) and the MIC (E. coli [3]) was 1.25 µM (≈ 0.597 µg/mL).
Compound CC[C@H](C)[C@H](NC(=O)[C@H](CCCCN)NC(=O)[C@H](CCCCN)NC(=O)[C@H](CC(C)C)NC(=O)[C@H](CCCNC(=N)N)NC(=O)[C@H](CCCCN)NC(=O)[C@H](CCCNC(=N)N)NC(=O)[C@@H](NC(=O)[C@H](CCCCN)NC(=O)[C@H](CCCCN)NC(=O)[C@H](CCCNC(=N)N)NC(=O)[C@H](CC(C)C)NC(=O)[C@H](CCCNC(=N)N)NC(=O)[C@H](CCCNC(=N)N)NC(=O)[C@H](Cc1ccccc1)NC(=O)[C@H](CCCNC(=N)N)NC(=O)CN)[C@@H](C)O)C(=O)NCC(=O)N[C@@H](CCCCN)C(=O)N[C@H](C(=O)N[C@@H](CC(C)C)C(=O)N[C@@H](CCCCN)C(=O)N[C@@H](Cc1c[nH]c2ccccc12)C(=O)N[C@H](C(=O)N1CCC[C@H]1C(=O)N1CCC[C@H]1C(=O)N[C@H](C(=O)N[C@H](C(=O)NCC(=O)N[C@@H](CO)C(=O)N[C@H](C(=O)N1CCC[C@H]1C(=O)N[C@@H](CC(C)C)C(=O)NCC(=O)N[C@@H](CS)C(=O)NCC(=O)O)[C@@H](C)CC)C(C)C)[C@@H](C)CC)[C@@H](C)CC)C(C)C [PMAP-36] (H-GRFRRLRKKTRKRLKKIGKVLKWIPPIVGSIPLGCG-OH) has a hemolysis (red blood cells of mice; red cells of mouse, 1 h) of less than 20% and a cell viability (PK-15 cells; 2 h) of less than 30%.
CN(C)[C@@H]1C(O)=C(C(N)=O)C(=O)[C@@]2(O)C(O)=C3C(=O)c4c(O)cccc4[C@@](C)(O)[C@H]3C[C@@H]12 [Tetracycline, tetracycline] was tested, and the MBC (S. aureus [1]) was 40 µM (≈ 17.8 µg/mL), the MBC (S. enteritidis [2]) was 640 µM (≈ 284 µg/mL) and the MIC (S. enteritidis [2]) was 40 µM (≈ 17.8 µg/mL). For the same compound, the MBC (E. coli [3]) was 10 µM (≈ 4.44 µg/mL).
